# Experimental data taken from patent publication US20250129052A1, “PYRAZINE COMPOUNDS FOR THE CONTROL OF INVERTEBRATE PESTS” (priority 2021, published 2025).
# Columns and labels:
# Assay type in all cases: in vivo
# [1] = system: green peach aphid (Myzus persicae); test: B.1 Green peach aphid, systemic, artificial diet in microtiter plates; details: for mortality at 7.9 ppm / mortality at 9.9 ppm: read-out: % mortality in comparison to untreated controls, B.1; for mortality at 2500 ppm: 72 h, 3 days, aphid diet, read-out: mortality in comparison with untreated controls
# Source text: B.1 Green Peach Aphid (Myzus persicae)
# For evaluating control of green peach aphid (Myzus persicae) through systemic means, the test unit consisted of 96-well-microtiter plates containing liquid artificial diet under an artificial mem brane.
# The compounds were formulated using a solution containing 75% v/v water and 25% v/v DMSO. Different concentrations of formulated compounds were pipetted into the aphid diet, using a custom built pipetter, at two replications.
# After application, 5-8 adult aphids were placed on the artificial membrane inside the microtiter plate wells. The aphids were then allowed to suck on the treated aphid diet and incubated at about 23±1° C. and about 50±5% relative humidity for 3 days. Aphid mortality and fecundity was then visually assessed.
# [2] = system: boll weevil (Anthonomus grandis); test: B.3 Boll weevil, insect diet with eggs in microtiter plates; details: for mortality at 7.9 ppm: read-out: % mortality in comparison to untreated controls, B.3; for mortality at 2500 ppm: 120 h, read-out: mortality in comparison with untreated controls
# Method: B.3 Boll Weevil (Anthonomus grandis)
# For evaluating control of boll weevil (Anthonomus grandis), the test unit consisted of 96-well-microtiter plates containing an insect diet and 5-10 A. grandis eggs.
# The compounds were formulated using a solution containing 75% v/v water and 25% v/v DMSO. Different concentrations of formulated compounds were sprayed onto the insect diet at 5 μl, using a custom-built micro atomizer, at two replications.
# After application, microtiter plates were incubated at about 25±1° C. and about 75±5% relative humidity for 5 days. Egg and larval mortality was then visually assessed.
# [3] = system: Orchid thrips; Dichromothrips corbetti; test: B.6 Orchid thrips, floral-immersion technique; details: 300 ppm; 72 hours after treatment
# Method: B.6 ANAPCO (Orchid thrips; Dichromothrips corbetti)
# Dichromothrips corbetti adults used for bioassay are obtained from a colony maintained continuously under laboratory conditions. For testing purposes, the test compound is diluted in a 1:1 mixture of acetone:water (vol:vol), plus Kinetic at a rate of 0.01% v/v.
# Thrips potency of each compound is evaluated by using a floral-immersion technique. Each orchid petal is dipped into treatment solution and allowed to dry in Petri dishes. Treated petals are placed into individual re-sealable plastic along with about 20 adult thrips. All test arenas are held under dark condition and a temperature of about 28° C. for duration of the assay. The percent mortality is recorded 72 hours after treatment.
# [4] = system: Black Bean Aphid; Aphis craccivora; test: B.7 Black bean aphid, sprayed potted bean plants; details: 300 ppm; after 72 hours
# Method: B.7 APHICR (Black Bean Aphid; Aphis craccivora)
# The active compound is dissolved at the desired concentration in a mixture of 1:1 (vol:vol) distilled water:acetone. Surfactant (Kinetic) is added at a rate of 0.01% (vol/vol). The test solution is prepared at the day of use.
# Potted (Kord traditional square pots Size 3″ and 2.5″ in depth) bush beans are cleaned with the apical leaves removed using pointed forceps, leaving only the cotyledon leaves. Plants are inoculated with about 30 mixed-stage aphid colony 24 hours before spraying. Potted bean plants are sprayed with the test solutions using a DeVilbiss hand atomizer (20-30 psi). Treated plants are allowed to air-dry in the laboratory for about an hour before placing them inside the holding room maintained at 27° C., 50% RH and […] conditions. Stem of the treated bean plants are inserted in the slit of cut circle filter paper to catch the falling dead aphids. Assessment of population reduction (% mortality) is done after 72 hours.
# [5] = system: tobacco budworm (Heliothis virescens); test: B.2 Tobacco budworm, insect diet with eggs in microtiter plates; details: 120 h, 5 days, egg and larval mortality, read-out: mortality in comparison with untreated controls
# Method: B.2 Tobacco Budworm (Heliothis virescens)
# For evaluating control of tobacco budworm (Heliothis virescens), the test unit consisted of 96-well-microtiter plates containing an insect diet and 15-25 H. virescens eggs.
# The compounds were formulated using a solution containing 75% v/v water and 25% v/v DMSO. Different concentrations of formulated compounds were sprayed onto the insect diet at 10 μl, using a custom-built micro atomizer, at two replications.
# After application, microtiter plates were incubated at about 28±1° C. and about 80±5% relative humidity for 5 days. Egg and larval mortality was then visually assessed.
# [6] = system: Southern Armyworm (Spodoptera eridania), 2nd Instar Larvae; test: B.4 Southern armyworm, 2nd instar larvae, sprayed lima bean plants; details: 96 h, 4 days after treatment, foliar spray, read-out: mortality in comparison with untreated controls
# Method: B.4. Southern Armyworm (Spodoptera eridania), 2nd Instar Larvae
# The active compounds were formulated by a Tecan liquid handler in 100% cyclohexanone as a 10,000-ppm solution supplied in tubes. The 10,000-ppm solution was serially diluted in 100% cyclohexanone to make interim solutions. These served as stock solutions for which final dilutions were made by the Tecan in 50% acetone:50% water (v/v) into 10 or 20 ml glass vials. A non-ionic surfactant (Kinetic@) was included in the solution at a volume of 0.01% (v/v). The vials were then inserted into an automated electrostatic sprayer equipped with an atomizing nozzle for application to plants/insects. Lima bean plants (variety Sieva) were grown 2 plants to a pot and selected for treatment at the 1st true leaf stage. Test solutions were sprayed onto the foliage by an automated electrostatic plant sprayer equipped with an atomizing spray nozzle. The plants were dried in the sprayer fume hood and then removed from the sprayer. Each pot was placed into perforated plastic bags with a zip closure. Ten to 11 armyworm larvae were placed into the bag and the bags zipped closed. Test plants were maintained in a growth room at about 25° C. and about 20-40% relative humidity for 4 days, avoiding direct exposure to fluorescent light (14:10 light:dark photoperiod) to prevent trapping of heat inside the bags. Mortality and reduced feeding were assessed 4 days after treatment, compared to untreated control plants.
# [7] = system: yellow fever mosquito (Aedes aegypti); test: whole plant or invertebrate; details: 48 h, 2 days, larval mortality, read-out: mortality in comparison with untreated controls
# Method: B.5 Yellow Fever Mosquito (Aedes aegypti)
# For evaluating control of yellow fever mosquito (Aedes aegypti) the test unit consisted of 96-well-microtiter plates containing 200 μl of tap water per well and 5-15 freshly hatched A. aegypti larvae.
# The active compounds were formulated using a solution containing 75% (v/v) water and 25% (v/v) DMSO. Different concentrations of formulated compounds or mixtures were sprayed onto the insect diet at 2.5 μl, using a custom-built micro atomizer, at two replications.
# After application, microtiter plates were incubated at 28±1° C., 80±5% RH for 2 days. Larval mortality was then visually assessed.
smiles,measurement,setting,value
"CC(NC(=O)c1cc(C(F)(F)F)cc(C(F)(F)F)c1)c1nccnc1-n1cncn1 (centres unmarked) [WO 2021/037614 P46, reference compound]",mortality at 7.9 ppm,[1],0%
same,mortality at 9.9 ppm,[1],25%
same,mortality at 7.9 ppm,[2],50%
same,"% mortality in comparison to untreated controls, B.6",[3],0%
same,"% mortality in comparison to untreated controls, B.7",[4],50%
"CC(NC(=O)c1cc(Br)cc(C(F)(F)F)c1)c1nccnc1-c1ncn(CC(F)(F)F)n1 (centres unmarked) [Compound I1-1, 3-bromo-N-[1-[3-[1-(2,2,2-trifluoroethyl)-1,2,4-triazol-3-yl]pyrazin-2-yl]ethyl]-5-(trifluoromethyl)benzamide]",mortality at 2500 ppm,[1],≥ 75%
same,mortality at 2500 ppm,[5],≥ 75%
same,mortality at 2500 ppm,[2],≥ 75%
same,mortality at 300 ppm,[6],≥ 75%
same,mortality at 2500 ppm,[7],≥ 75%
"Cc1cnn(-c2nccnc2C(C)NC(=O)c2cc(C(F)(F)F)cc(C(F)(F)F)c2)n1 (centres unmarked) [WO 2021/037614 P1, reference compound]",mortality at 9.9 ppm,[1],0%
same,"% mortality in comparison to untreated controls, B.6",[3],0%
same,"% mortality in comparison to untreated controls, B.7",[4],0%
"CC(NC(=O)c1cc(Cl)cc(C(F)(F)F)c1)c1nccnc1-c1ncn(CC=C(Cl)Cl)n1 (centres unmarked) [Compound I1-11, 3-chloro-N-[1-[3-[1-(3,3-dichloroallyl)-1,2,4-triazol-3-yl]pyrazin-2-yl]ethyl]-5-(trifluoromethyl)benzamide]",mortality at 2500 ppm,[5],≥ 75%
same,mortality at 2500 ppm,[2],≥ 75%
same,mortality at 2500 ppm,[7],≥ 75%
CC(NC(=O)c1cc(C(F)(F)F)cc(C(F)(F)F)c1)c1nccnc1-c1ncn(CC(F)(F)F)n1 (centres unmarked) [Compound I1-13],mortality at 7.9 ppm,[1],100%
same,mortality at 2500 ppm,[1],≥ 75%
same,mortality at 2500 ppm,[5],≥ 75%
same,mortality at 2500 ppm,[2],≥ 75%
same,mortality at 7.9 ppm,[2],100%
same,mortality at 300 ppm,[6],≥ 75%
same,mortality at 2500 ppm,[7],≥ 75%
same,"% mortality in comparison to untreated controls, B.6",[3],100%
"CC(c1nccnc1-c1ncn(C(C)C)n1)N(C)C(=O)c1cc(Cl)cc(S(C)(=O)=O)c1 (centres unmarked) [Compound I1-5, 3-chloro-N-[1-[3-(1-isopropyl-1,2,4-triazol-3-yl)pyrazin-2-yl]ethyl]-N-methyl-5-methylsulfonyl-benzamide]",mortality at 2500 ppm,[1],≥ 75%
same,mortality at 2500 ppm,[2],≥ 75%
same,mortality at 300 ppm,[6],≥ 75%
same,mortality at 2500 ppm,[7],≥ 75%
"CC(NC(=O)c1cc(Cl)cc(C(F)(F)F)c1)c1nccnc1-c1ncn(CC2CC2(Cl)Cl)n1 (centres unmarked) [Compound I1-14, 3-chloro-N-[1-[3-[1-[(2,2-dichlorocyclopropyl)methyl]-1,2,4-triazol-3-yl]pyrazin-2-yl]ethyl]-5-(trifluoromethyl)benzamide]",mortality at 2500 ppm,[1],≥ 75%
same,mortality at 2500 ppm,[5],≥ 75%
same,mortality at 2500 ppm,[2],≥ 75%
same,mortality at 300 ppm,[6],≥ 75%
same,mortality at 2500 ppm,[7],≥ 75%
"COc1ccc(Cn2cnc(-c3nccnc3C(C)NC(=O)c3cc(Cl)cc(C(F)(F)F)c3)n2)cc1 (centres unmarked) [Compound I1-4, 3-chloro-N-[1-[3-[1-[(4-methoxyphenyl)methyl]-1,2,4-triazol-3-yl]pyrazin-2-yl]ethyl]-5-(trifluoromethyl)benzamide]",mortality at 2500 ppm,[2],≥ 75%
same,mortality at 300 ppm,[6],≥ 75%
"CC(NC(=O)c1cc(Cl)cc(S(C)(=O)=O)c1)c1nccnc1-c1ncn(C(C)C)n1 (centres unmarked) [Compound I1-7, 3-chloro-N-[1-[3-(1-isopropyl-1,2,4-triazol-3-yl)pyrazin-2-yl]ethyl]-5-methylsulfonyl-benzamide]",mortality at 2500 ppm,[1],≥ 75%
same,mortality at 2500 ppm,[2],≥ 75%
same,mortality at 300 ppm,[6],≥ 75%
same,mortality at 2500 ppm,[7],≥ 75%
CC(NC(=O)c1cc(C(F)(F)F)cc(C(F)(F)F)c1)c1nccnc1-c1ncn(C)n1 (centres unmarked) [Compound I1-12],mortality at 9.9 ppm,[1],100%
same,mortality at 2500 ppm,[1],≥ 75%
same,mortality at 2500 ppm,[5],≥ 75%
same,mortality at 2500 ppm,[2],≥ 75%
same,mortality at 300 ppm,[6],≥ 75%
same,mortality at 2500 ppm,[7],≥ 75%
same,"% mortality in comparison to untreated controls, B.6",[3],100%
same,"% mortality in comparison to untreated controls, B.7",[4],100%
"CC(NC(=O)c1cc(Cl)nc(Cl)c1)c1nccnc1-c1ncn(-c2ccccc2)n1 (centres unmarked) [Compound I2-1, 2,6-dichloro-N-[1-[3-(1-phenyl-1,2,4-triazol-3-yl)pyrazin-2-yl]ethyl]pyridine-4-carboxamide]",mortality at 2500 ppm,[1],≥ 75%
same,mortality at 2500 ppm,[2],≥ 75%
same,mortality at 2500 ppm,[7],≥ 75%
